Measured values reported in patent US20050101595A1, “N-containing cycloalkyl-substituted amino-thiazole derivatives and pharmaceutical compositions for inhibiting cell proliferation and methods for their use” (PFIZER INC., priority 2003, published 2005).
pIC50, pKi: −log10 of the molar value. Counter-ions that a name gives are not always drawn. Like-named read-outs stand apart in the source and are kept apart here.

How the values were obtained:
[1] = molecular target: CDK2/Cyclin A (Homo sapiens, UniProt P24941); assay: Inhibition of CDK2/Cyclin A Retinoblastoma Kinase Activity; type: biochemical; conditions: for pKi: apparent Ki, CDK2/proteolyzed cyclin A, Rb fragment substrate, 25 μM ATP; for CDK2 % Inhibition At 0.03 μM: Table 2
Summary of the method: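 CDK2 (10 or 19 nM), insect-cell expressed, gel-filtration purified with truncated cyclin A; Rb fragment substrate; 25 μM ATP; 10 mM HEPES pH 7.4, 10 mM MgCl2; 30° C, 60 or 75 min; EDTA stop; phosphocellulose/nitrocellulose capture, phosphorimager. % inhibition vs DMSO control, no-enzyme background subtracted.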

[2] = test system: HCT-116 cell line; assay: Inhibition of cell growth, tetrazolium salt (MTT) assay; type: cell-based; conditions: for pIC50: Homo sapiens, HCT-116, 120 h, MTT, three to five days, read-out: HCT-116 IC50; for HCT-116 % Inhibition at 0.25 μM: 0.25 μM compound
Summary of the method: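 MTT colorimetric viability: three-to-five-day compound exposure in 0.5% (v/v) DMSO at 37° C, MTT 0.2 mg/mL for the last 4 h, A540 compared with vehicle-treated cells.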

[3] = molecular target: human CDK4 and genetically truncated (1-264) cyclin D3 (Homo sapiens, UniProt P11802); assay: Inhibition of CDK4/Cyclin D Retinoblastoma Kinase Activity; type: biochemical; conditions: for pKi: apparent Ki, CDK4/truncated cyclin D3, Rb fragment substrate, 25 μM ATP
Sequence of human CDK4 and genetically truncated (1-264) cyclin D3 (P11802 whole entry, the tested form may be a part): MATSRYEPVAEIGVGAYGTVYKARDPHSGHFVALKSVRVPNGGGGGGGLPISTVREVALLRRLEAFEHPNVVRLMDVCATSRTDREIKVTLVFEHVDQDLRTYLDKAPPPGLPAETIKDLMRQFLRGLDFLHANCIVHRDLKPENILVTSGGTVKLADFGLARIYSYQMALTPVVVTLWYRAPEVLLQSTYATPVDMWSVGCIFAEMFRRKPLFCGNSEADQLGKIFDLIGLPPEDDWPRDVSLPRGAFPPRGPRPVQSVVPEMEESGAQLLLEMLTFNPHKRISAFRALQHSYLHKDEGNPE
Sequence of human CDK4 and genetically truncated (1-264) cyclin D3 (P30281 1-264 partner): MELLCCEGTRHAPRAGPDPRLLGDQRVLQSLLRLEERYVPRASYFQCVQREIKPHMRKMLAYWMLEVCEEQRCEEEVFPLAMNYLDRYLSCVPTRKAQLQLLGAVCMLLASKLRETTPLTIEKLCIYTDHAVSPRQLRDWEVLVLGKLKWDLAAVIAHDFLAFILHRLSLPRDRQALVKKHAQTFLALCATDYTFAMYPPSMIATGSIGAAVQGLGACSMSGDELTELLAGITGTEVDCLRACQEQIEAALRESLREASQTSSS
Summary of the method: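 The enzyme complex (5 nM), expressed in co-infected insect cells, was incubated with recombinant Rb fragment, 25 μM radiolabelled ATP and 2% DMSO at 30 °C. Reactions were stopped with EDTA after 20 minutes, or 60 minutes for tight-binding inhibitors. Apparent Ki values came from competitive inhibition fits.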

Cc1cc(C(=O)N2CCC(Nc3nc(N)c(C(=O)c4c(F)cccc4F)s3)CC2)ccc1Cl [Example D7, 1-(4-Amino-2-{1-[1-(4-chloro-3-methyl-phenyl)-methanoyl]-piperidin-4-ylamino}-thiazol-5-yl)-1-(2,6-difluoro-phenyl)-methanone]
pKi [1]: 7.00
pIC50 ([2]; first HCT-116 column (c4)): 8.14
pIC50 ([2]; second HCT-116 column (c5)): 6.66
pKi [3]: 7.49

Nc1nc(NC2CCN(S(=O)(=O)CCCSc3ccncc3)CC2)sc1C(=O)c1c(F)cccc1F [Example K23, 1-(4-Amino-2-{1-[3-(pyridin-4-ylsulfanyl)-propane-1-sulfonyl]-piperidin-4-ylamino}-thiazol-5-yl)-1-(2,6-difluoro-phenyl)-methanone.]
pKi [1]: 8.55
pIC50 ([2]; first HCT-116 column (c4)): 6.34
pIC50 ([2]; second HCT-116 column (c5)): < 6.30
pKi [3]: 8.52

CC(=Cc1ccccc1)C(=O)N1CCC(Nc2nc(N)c(C(=O)c3c(F)cccc3F)s2)CC1 [Example R161]
CDK2 % Inhibition at 0.03 μM ([1]; at 0.03 μM): 26%
HCT-116 % Inhibition at 0.1 μM ([2]; HCT-116 cells, at 0.1 μM): 0%
HCT-116 5 Inhibition at 0.25 μM ([2]; HCT-116 cells): 34
CDK4 % Inhibition at 0.03 μM ([3]; at 0.03 μM): 53%

Nc1nc(NC2CCN(S(=O)(=O)c3ccc(Cc4ncc[nH]4)nc3)CC2)sc1C(=O)c1c(F)cccc1F [Example I4, 1-(4-Amino-2-{1-[6-(1H-imidazol-2-ylmethyl)-pyridine-3-sulfonyl]-piperidin-4-ylamino}-thiazol-5-yl)-1-(2,6-difluoro-phenyl)-methanone Hydrochloride]
pKi [1]: > 9.00
pIC50 ([2]; first HCT-116 column (c4)): 5.72
pIC50 ([2]; second HCT-116 column (c5)): 5.33
pKi [3]: 8.74

CCN1CCN(C(=O)N2CCC(Nc3nc(N)c(C(=O)c4c(F)cccc4F)s3)CC2)C(=O)C1=O [Example R83]
CDK2 % Inhibition at 0.03 μM ([1]; at 0.03 μM): 21%
HCT-116 % Inhibition at 0.1 μM ([2]; HCT-116 cells, at 0.1 μM): 0%
HCT-116 5 Inhibition at 0.25 μM ([2]; HCT-116 cells): 45
CDK4 % Inhibition at 0.03 μM ([3]; at 0.03 μM): 52%

CC(NC(=O)N1CCC(Nc2nc(N)c(C(=O)c3c(F)cccc3F)s2)CC1)c1cccc2ccccc12 (centres unmarked) [Example O67]
CDK2 % Inhibition At 0.03 μM ([1]; 0.03 μM compound): 31%
HCT-116 % Inhibition at 0.25 μM ([2]; HCT-116, Table 2): 50%
CDK4 % Inhibition at 0.03 μM ([3]; 0.03 μM compound, Table 2): 8%

Nc1nc(NC2CCN(C(=O)c3ccccc3F)CC2)sc1C(=O)c1c(F)cccc1F [Example R104]
CDK2 % Inhibition at 0.03 μM ([1]; at 0.03 μM): 5%
HCT-116 % Inhibition at 0.1 μM ([2]; HCT-116 cells, at 0.1 μM): 0%
HCT-116 5 Inhibition at 0.25 μM ([2]; HCT-116 cells): 38
CDK4 % Inhibition at 0.03 μM ([3]; at 0.03 μM): −8%

Nc1nc(NC2CCN(S(=O)(=O)c3cccs3)CC2)sc1C(=O)c1c(F)cccc1F [Example P5]
CDK2 % Inhibition at 0.03 μM ([1]; 0.03 μM compound, Table 3): 64%
HCT-116 % Inhibition at 0.1 μM ([2]; 0.1 μM compound, HCT-116, Table 3): 27%
HCT-116 % Inhibition at 0.25 μM ([2]; HCT-116, Table 3): 32%
CDK4 % Inhibition at 0.03 μM ([3]; 0.03 μM compound, Table 3): 70%

CC(=O)c1ccc(NC(=O)N2CCC(Nc3nc(N)c(C(=O)c4c(F)cccc4F)s3)CC2)cc1 [Example O53]
CDK2 % Inhibition At 0.03 μM ([1]; 0.03 μM compound): 30%
HCT-116 % Inhibition at 0.25 μM ([2]; HCT-116, Table 2): 41%
CDK4 % Inhibition at 0.03 μM ([3]; 0.03 μM compound, Table 2): 11%

Nc1nc(NC2CCN(S(=O)(=O)CCc3ccncc3)CC2)sc1C(=O)c1c(F)cccc1F [Example F27, 1-{4-Amino-2-[1-(2-pyridin-4-yl-ethanesulfonyl)-piperidin-4-ylamino]-thiazol-5-yl}-1-(2,6-difluoro-phenyl)-methanone]
pKi [1]: 7.49
pIC50 ([2]; first HCT-116 column (c4)): 6.00
pIC50 ([2]; second HCT-116 column (c5)): 5.30
pKi [3]: 8.17

Cc1ccc(NC(=O)N2CCC(Nc3nc(N)c(C(=O)c4c(F)cccc4F)s3)CC2)cc1C [Example O48]
CDK2 % Inhibition At 0.03 μM ([1]; 0.03 μM compound): 28%
HCT-116 % Inhibition at 0.25 μM ([2]; HCT-116, Table 2): 16%
CDK4 % Inhibition at 0.03 μM ([3]; 0.03 μM compound, Table 2): 11%

Nc1nc(NC2CCN(C(=O)c3ccc(F)c(Cl)c3)CC2)sc1C(=O)c1c(F)cccc1F [Example D8, 1-(4-Amino-2-{1-[1-(3-chloro-4-fluoro-phenyl)-methanoyl]-piperidin-4-ylamino}-thiazol-5-yl)-1-(2,6-difluoro-phenyl)-methanone]
pKi [1]: 7.00
pIC50 ([2]; first HCT-116 column (c4)): 7.01
pIC50 ([2]; second HCT-116 column (c5)): 6.60
pKi [3]: 8.02

CN(C)CCCS(=O)(=O)N1CCC(Nc2nc(N)c(C(=O)c3c(F)cccc3F)s2)CC1 [Example K4, 1-(4-Amino-2-{1-[3-(dimethylamino)propane-1-sulfonyl]-piperidin-4-ylamino}-thiazol-5-yl)-1-(2,6-difluoro-phenyl)-methanone.]
pKi [1]: 8.74
pIC50 ([2]; first HCT-116 column (c4)): 6.39
pIC50 ([2]; second HCT-116 column (c5)): 5.82
pKi [3]: 8.89

CN1CCCC1CCSc1ccc(S(=O)(=O)N2CCC(Nc3nc(N)c(C(=O)c4c(F)cccc4F)s3)CC2)cn1 (centres unmarked) [Example L6, 1-[4-Amino-2-(1-{6-[2-(1-methyl-pyrrolidin-2-yl)-ethylsulfanyl]-pyridine-3-sulfonyl}-piperidin-4-ylamino)-thiazol-5-yl]-1-(2,6-difluoro-phenyl)-methanone Dihydrochloride.]
pKi [1]: 8.82
pIC50 ([2]; first HCT-116 column (c4)): 7.12
pIC50 ([2]; second HCT-116 column (c5)): 6.52
pKi [3]: 9.02
